For assay [1], the system named is MHCcln1 template (64% G+C). Kind of assay: Amplification using AmpliTaq DNA polymerase under standard conditions with additives. It is filed as biochemical. The conditions noted are these: DMSO 10% v/v, betaine up to 2.5 M, glycerol 10% v/v, formamide 10% v/v, TMACl 0.1 mM to 1.0 M. The source says: (§1) A number of test DNAs are utilized in amplification reactions. Four of the test fragments are:
(ii) a 1.6 kb fragment from the MHC region, MHCclnl, which has a 64% G+C content (see Shukla et al., Nucleic Acids Res. 19:4233, 1991; GenBank Accession No. L20433; SEQ ID No. 3, which presents nucleotides 320 to 850 of L20433);
(§2) Thus, the sizes of the amplified fragments for each of these four templates, with the exception of MHCcln1, include 200 bp of multiple cloning sites of pBluescript vector.
(§3) (See Science 239:487, 1988).

Assay [2] has as its system OCT-T1 template (80% G+C). Described as above. As to conditions: DMSO 10% v/v, betaine up to 2.5 M, glycerol 10% v/v, formamide 10% v/v, TMACl 0.1 mM to 1.0 M. It is filed as biochemical, human.
Excerpt: as §1
(iii) a 0.8 kb fragment of human OCT-T1 cDNA, which encodes a transcription factor expressed in T lymphocytes that binds the octamer sequence, and which has an 80% G+C content (see Bhargava et al., Proc. Natl. Acad. Sci. USA 91:10260, 1993; SEQ ID NO. 4); and
As each of these fragments are cloned in pBluescript or a pUC plasmid (MHCcln1), primers for amplification of these fragments are the M13 forward primer ([…]; SEQ. ID No. 1) and the M13 reverse primer ([…]; SEQ ID No. 2). Thus, the sizes of the amplified fragments for each of these four templates, with the exception of MHCcln1, include 200 bp of multiple cloning sites of pBluescript vector.
The two G+C-rich templates are unsuccessfully amplified (MHCcln1 and OCT-T1) using AmpliTaq® DNA polymerase (Perkin-Elmer Cetus) under standard conditions. (See Science 239:487, 1988). […] In addition, betaine (>1.0 M), formamide (>5%), and TMACl (>100 mM) are inhibitory for amplification of the non-G+C-rich template OCT1.

A further assay concerns OCT1 template. Description: Amplification using two enzyme mixture Klentaq LA16 with additives. As to conditions: for amplification of OCT1: 2.2 M betaine or 10% DMSO, FIG. 1A lanes 1-2; for effect on amplification of OCT1: at 0.1-1.0 M. It is filed as biochemical, human. The method, then:
(§4) Each of the G+C-rich templates is set up in an amplification reaction using a two enzyme mixture, with and without the addition of betaine (0.5 to 2.5 M), DMSO (5-10%), formnamide (5-10%), glycerol (5-10%), TMACl (0.1 mM to 1 M), and tetramethylammonium acetate (TMAA) (0.1 mM-1.0 M).
(§5) The amplification reaction (50 μl) is performed in 20 mM Tris-HCl, pH 9.0 at 25° C., containing 150 μg/ml of bovine serum albumin, 16 mM ammonium sulfate, 2.5 mM magnesium chloride, 200 μM of each dNTP, 50 ng each of the M13 forward primer and the M13 reverse primer, 0.5-1.0 ng of plasmid templates and 0.2-0.4 μl of Klentaq LA16 (a 1:15 v/v ratio of Klentaq1 (Ab Peptides Inc., St. Louis, Mo.), which is Taq DNA polymerase lacking the 5′ to 3′ exonuclease activity, and Pfu DNA polymerase (Stratagene, LaJolla, Calif.); the long and accurate (LA) system described in Barnes, Proc. Natl. Acad. Sci. USA 91:2216, 1994). DMSO, TMACl, TMAA, betaine, or the combination of DMSO and betaine is added to aliquots of the same mixture without dNTPs and overlaid with mineral oil. Amplification is performed in a thermocycler instrument using thin-walled tubes (0.5 ml). The tubes are heated at 95° C. for 15 seconds and amplification is initiated by the addition of dNTPs at 80° C. The following cycling conditions are used for 25 cycles: denaturation at 94° C. for 15 seconds, annealing at 50 to 55° C. for 1 minute, and extension at 68° C. for 5 minutes. Following amplification, 10 μl of the resulting product is loaded onto a 1% agarose gel (see Molecular Cloning: A Laboratory Manual by J. Sambrook et al., Cold Spring Harbor, 1989). The amplified DNA is stained with ethidium bromide and the gel is photographed while UV-irradiated by a transilluminator.

In assay [3] the test system is OCT-T1 template (80% G+C). The description is as above. As to conditions: for amplification of OCT-T1: Klentaq LA16, 2.2 M betaine or 10% DMSO, FIG. 1A lanes 7-8; for OCT-T1 amplification: salt >0.15 M. It is filed as biochemical, human. The method, then: as §4, §5
(§6) Various analogues of betaine and two tetraalkylammonium salts are used to amplify OCT-T1 or TFR templates. Amplification reactions are performed as above in the presence of either 2 M analogue or at least 0.15 M salt.

The subject of another assay is TFR template (44% G+C). The assay is described as above. The conditions noted are these: for amplification of TFR: Klentaq LA16, 2.2 M betaine or 10% DMSO, FIG. 1A lanes 3-4; for TFR amplification: salt >0.15 M. It is filed as biochemical, human. The method, then:
as §4, §5, §6

The subject of another assay is MHCcln1 template. The assay is described as above. It is filed as biochemical. As to conditions: 2.2 M betaine or 10% DMSO, FIG. 1A lanes 5-6. On the procedure: as §4
as §5, with “The following cycling conditions are used for 25 cycles: denaturation at 94° C. for 15 seconds, annealing at 50 to 55° C. for 1 minute, and extension at 68° C. for 5 minutes. Following amplification, 10 μl of the resulting product is loaded onto a 1% agarose gel (see Molecular Cloning: A Laboratory Manual by J. Sambrook et al., Cold Spring Harbor, 1989). The amplified DNA is stained with ethidium bromide and the gel is photographed while UV-irradiated by a transilluminator.” left out

In assay [4] the test system is mixture of the 4 templates, OCT1, OCT-T1, TFR and MHCcln1. Description: Amplification of a mixture of the four templates using Klentaq LA16, varying DMSO and/or betaine. As to conditions: for uniformity of amplification of the four templates: DMSO (5%, 10%) or betaine (1.1 M, 2.2 M) alone, FIG. 1B lanes 9-12. It is filed as biochemical. The method, then:
as §5
Amplification is also performed on a mixture of the four templates, varying the concentrations of DMSO and/or betaine. […] Thus, by adding both DMSO and betaine, preferably within a range of 1.0 M betaine with 6-8% DMSO or 5% DMSO with 1.2-1.8 M betaine, all four templates are amplified.

Another assay has as its system OCT1 template (52% G+C). Description: Amplification using AmpliTaq DNA polymerase under standard conditions with additives. It is filed as biochemical, human.
Excerpt: as §1
(i) a 2.7 kb cDNA encoding the octamer binding protein, OCT1 GenBank accession No. X13403; Sturm et al., Genes & Dev. 2:1582, 1988; SEQ ID No. 8), which has a 52% G+C content;
as §2, §3

Setting [5] is: higher concentration of DMSO (12-15%) or betaine (1.8-2.5 M).

Take `C[S+](C)[O-]` [DMSO, dimethyl sulfoxide]: the “visible amplification of MHCcln1” value in assay [1] is recorded as “did not result in visible amplification”. The “visible amplification of OCT-T1” value in assay [2] is recorded as “did not result in visible amplification”. The “amplification of OCT1” value in the assay with OCT1 template is reported as “could be amplified”. Besides, the “amplification of OCT-T1” value in assay [3] is listed as “could be amplified”. The “amplification of TFR” value in the assay with TFR template (44% G+C) is listed as “could be amplified”. In addition, the “amplification of MHCcln1” value in the assay with MHCcln1 template is given as “could be amplified”. For the same compound, the “uniformity of amplification of the four templates” value in assay [4] is listed as “not amplified uniformly”. The “amplification of all four templates” value in assay [4] (setting [5]) was “variable amplification”.
As for `C[N+](C)(C)CC(=O)O` [Glycine betaine], the “visible amplification of MHCcln1” value in assay [1] is “did not result in visible amplification”. For the same compound, in assay [2], the “visible amplification of OCT-T1” value is “did not result in visible amplification”. In addition, the “effect on amplification of the non-G+C-rich template OCT1” value with OCT1 template (52% G+C) (betaine >1.0 M) is listed as “inhibitory”. The “amplification of OCT1” value in the assay with OCT1 template is given as “could be amplified”. Moreover, in assay [3], the “amplification of OCT-T1” value was “could be amplified”. For the same compound, the “amplification of TFR” value in the assay on TFR template (44% G+C) is on record as “could be amplified”. Moreover, in the assay with MHCcln1 template, the “amplification of MHCcln1” value is “could be amplified”. Further, the “amplification of all four templates” value is “amplified to a varying extent” in assay [4] (2.2 M betaine (lane 12)) and “variable amplification” in assay [4] (setting [5]). In addition, the “uniformity of amplification of the four templates” value in assay [4] is “not amplified uniformly”.
Take `CC(=O)[O-].C[N+](C)(C)C` [TMAA, tetramethylammonium acetate]: the “effect on amplification of OCT1” value in the assay with OCT1 template was “inhibit amplification”. In addition, the OCT-T1 amplification result in assay [3] was “unable to facilitate amplification”. In addition, the TFR amplification result in the assay with TFR template (44% G+C) is given as “unable to facilitate amplification”.
Consider `C[N+](C)(C)C.[Cl-]` [TMAC, tetramethylammonium chloride], for which the “visible amplification of MHCcln1” value in assay [1] is recorded as “did not result in visible amplification”. In addition, the “visible amplification of OCT-T1” value in assay [2] is given as “did not result in visible amplification”. Also, in the assay on OCT1 template (52% G+C) (TMACl >100 mM), the “effect on amplification of the non-G+C-rich template OCT1” value is recorded as “inhibitory”. The “effect on amplification of OCT1” value in the assay on OCT1 template is on record as “inhibit amplification”. Also, the OCT-T1 amplification entry in assay [3] was “unable to facilitate amplification”. Also, in the assay on TFR template (44% G+C), the TFR amplification result was “unable to facilitate amplification”.
Consider `NC=O` [formamide], for which the “visible amplification of MHCcln1” value in assay [1] was “did not result in visible amplification”. Further, the “visible amplification of OCT-T1” value in assay [2] is “did not result in visible amplification”. Besides, in the assay with OCT1 template (52% G+C) (formamide >5%), the “effect on amplification of the non-G+C-rich template OCT1” value is recorded as “inhibitory”.
Regarding `OCC(O)CO` [glycerol], the “visible amplification of MHCcln1” value in assay [1] is “did not result in visible amplification”. The “visible amplification of OCT-T1” value in assay [2] was “did not result in visible amplification”.

These data come from patent US20020168658A1, “Amplification of nucleic acids” (YALE UNIVERSITY, priority 1995, published 2002).
